pIC50: −log10 of the molar value. Where “and” joins values, the source holds several entries; their conditions need not be identical. Identical values can stand only once. Like-named read-outs stand apart in the source and are kept apart here.
Assays:
Plasmodium falciparum = test: In vitro drug screening model against Plasmodium falciparum (drug sensitivity assay, Malstat LDH read-out); format: cell-based; details: for score: score in brackets after the IC50, scale not defined
Experimental: Malaria: In Vitro Drug Screening Model Against Plasmodium falciparum
Two strains of P. falciparum were used: 1/GHA strain (P. falGHA), derived from a Ghanese patient and chloroquine sensitive and 2/W-2 strain (P.falW2) from CDC/Indochina III and resistant to chloroquine, quinine, pyrimethamine, but susceptible to mefloquine. The strains were maintained in RPMI-1640 medium supplemented with 0.37 mM hypoxanthine, 25 mM Hepes, 25 mM NaHCO3, and 10% O+ human serum together with 2-4% washed human O+ erythrocytes (Adaptation of the procedures described by Trager, W.; Jensen J. B. Science 1976, 193, 673-677). All cultures and assays were conducted at 37° C. under an atmosphere of 4% CO2, 3% O2 and 93% N2.
Compound stock solutions were prepared in 100% DMSO at 20 mM or mg/ml (Concentrations are standard expressed in molar concentrations). The compounds were serially pre-diluted (2-fold or 4-fold) in DMSO followed by a further (intermediate) dilution in demineralized water to assure a final in-test DMSO concentration of <1%.
Assays were performed in sterile 96-well microtiter plates, each well containing 10 μl of the watery compound dilutions together with 190 μl of the malaria parasite inoculum (1% parasitaemia, 2% HCT). Parasite growth was compared to untreated-infected (100% growth) and uninfected-controls (0% growth). After 72 h incubation at 37° C., plates were frozen at −20° C. After thawing, 20 μl of each well was transferred into another plate together with 100 μl Malstat reagent (Lactate dehydrogenase (LDH)-test, according to Makler et al.: Am. J. Trop Med. Hyg, 48, 7339-741, 1993) and 20 μl of a 1/1 mixture of PES (phenazine ethosulfat, 0.1 mg/ml) and NBT (NitroBlue Tetrazolium Grade III, 2 mg/ml). The plates were kept out of light for 2 hours and change in color was measured spectrophotometrically at 655 nm. The results were expressed as % reduction in parasitaemia compared to control wells. For each compound, an IC50 was calculated.
The GHA strain was used. Compounds were tested at 5 concentrations (64-16-4-1 and 0.25 μM or μg/ml). […] Some of the compounds were evaluated in a secondary screening.
Additional strains (GHA, W2, D6, NF54) were included and the IC50-values were determined using an extended dose range (2-fold compound dilutions). Artesunate and chloroquine were included as reference drugs.

[1] = system: other strains of parasites; test: Activity against other strains of parasites (selectivity); format: cell-based
[2] = Plasmodium falciparum, Table 2, P. falciparum, strain not given, 72 h incubation, read-out: IC50

IC50 (Plasmodium falciparum; Plasmodium falciparum, 72 h)	IC50 (Plasmodium falciparum; [2])	melting point	SMILES	pIC50 (Plasmodium falciparum; Plasmodium falciparum, 72 h)	score (Plasmodium falciparum; Table 2)	activity against some other strains of parasites (selectivity compared to chloroquine) [1]
			C[C@H]1[C@H](OC(=O)CCC(=O)O)O[C@@H]2O[C@@]3(C)CC[C@H]4[C@H](C)CC[C@@H]1[C@@]24OO3 [Artesunate, reference compound]	8.30		
50 nM and 0.04 µg/mL			CCN(CC)CCCC(C)Nc1ccnc2cc(Cl)ccc12 (stereo not drawn) [Chloroquine, chloroquine, reference compound]			
	16.6 µg/mL	> 300 °C	c1ccc2[nH]c(-c3ccc(OCCCOc4ccc(-c5nc6ccccc6[nH]5)cc4)cc3)nc2c1 [Compound 1, 2,2′-[1,3-propanediylbis(oxy-1,4-phenylene)]bis-1H-benzimidazole]		1	
		> 300 °C	c1ccc2[nH]c(-c3ccc(OCCCCOc4ccc(-c5nc6ccccc6[nH]5)cc4)cc3)nc2c1 [Compound 2, 2,2′-[1,4-butanediylbis(oxy-1,4-phenylene)]bis-1H-benzimidazole]			
	0.49 µg/mL	> 300 °C	c1ccc2[nH]c(-c3ccc(OCCCCCOc4ccc(-c5nc6ccccc6[nH]5)cc4)cc3)nc2c1 [Compound 3, 2,2′-[1,5-pentanediylbis(oxy-1,4-phenylene)]bis-1H-benzimidazole]		3	not active
		> 300 °C	c1ccc2[nH]c(-c3ccc(OCCCCCCOc4ccc(-c5nc6ccccc6[nH]5)cc4)cc3)nc2c1 [Compound 4, 2,2′-[1,6-hexanediylbis(oxy-1,4-phenylene)]bis-1H-benzimidazole]			
		298 to 301 °C	c1ccc2[nH]c(-c3ccc(OCCCCCCCOc4ccc(-c5nc6ccccc6[nH]5)cc4)cc3)nc2c1 [Compound 5, 2,2′-[1,7-heptanediylbis(oxy-1,4-phenylene)]bis-1H-benzimidazole]			
	3.91 µg/mL	240 to 243 °C	c1cc(OCCCCCOc2cccc(-c3nc4ccccc4[nH]3)c2)cc(-c2nc3ccccc3[nH]2)c1 [Compound 6, 2,2′-[1,5-pentanediylbis(oxy-1,3-phenylene)]bis-1H-benzimidazole]		2	
	8.31 µg/mL	190 to 193 °C	c1ccc(-c2nc3ccccc3[nH]2)c(OCCCCCOc2ccccc2-c2nc3ccccc3[nH]2)c1 [Compound 7, 2,2′-[1,5-pentanediylbis(oxy-1,2-phenylene)]bis-1H-benzimidazole]		2	

Reference: patent US20100160402A1, “Bisbenzimidazoles as antimalarial agents” (priority 2007, published 2010)
